Measured values published in the supplement of paper PMC10307832.

Columns and labels:
Experiment in all cases: relative viability (nuclei count vs DMSO), 5 days (fraction); higher = more cells survive
AZ505 = compound: C1CCC(CC1)N(CCNCCC2=C3C(=C(C=C2)O)NC(=O)CO3)C(=O)CCNCCC4=CC(=C(C=C4)Cl)Cl [AZ505]
Procedure, shortened: (§1)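 Lung cancer cell lines in 1536-well plates were kept overnight at 37 °C, then pinned with five library-drug doses (not always all listed) spaced by √10 on vehicle-anchored plates. After 5 days without medium change, cells were fixed, permeabilised and Hoechst-stained in one step, imaged at 4×, and nuclei were counted with MetaXpress. Viability is treated-well nuclei divided by vehicle-well nuclei, taken as the median over plates. Plates passed only with control CV below 25% and at least one doubling.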

Dactolisib = compound: Cn1c(=O)n(-c2ccc(C(C)(C)C#N)cc2)c2c3cc(-c4cnc5ccccc5c4)ccc3ncc21 [Dactolisib]
Procedure, shortened: as §1

AZ505 + Navitoclax = compound: C1CCC(CC1)N(CCNCCC2=C3C(=C(C=C2)O)NC(=O)CO3)C(=O)CCNCCC4=CC(=C(C=C4)Cl)Cl [AZ505] + CC1(C)CCC(c2ccc(Cl)cc2)=C(CN2CCN(c3ccc(C(=O)NS(=O)(=O)c4ccc(N[C@H](CCN5CCOCC5)CSc5ccccc5)c(S(=O)(=O)C(F)(F)F)c4)cc3)CC2)C1 [Navitoclax] (partner 0.5 µM)
Procedure, shortened: (§2)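 Lung cancer cell lines were seeded in 1536-well plates and dosed by pin tool the next day, with either a single drug or a fixed anchor-drug dose combined with five library-drug doses (not always all listed) spaced in √10 steps. Five days later, one step fixed the cells and stained their nuclei (final 0.05% Triton X-100, 1% formaldehyde, 1 ug/ml Hoechst), and nuclei were counted on 4× images. Relative viability is the nuclei count in treated wells divided by the count in vehicle wells, and each value is the median of duplicate plates.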

AZ505 + Foretinib = compound: C1CCC(CC1)N(CCNCCC2=C3C(=C(C=C2)O)NC(=O)CO3)C(=O)CCNCCC4=CC(=C(C=C4)Cl)Cl [AZ505] + COc1cc2c(Oc3ccc(NC(=O)C4(C(=O)Nc5ccc(F)cc5)CC4)cc3F)ccnc2cc1OCCCN1CCOCC1 [Foretinib] (partner 0.25 µM)
Procedure, shortened: as §2

Row | Cell Line | relative viability (AZ505; 0.08 µM) | relative viability (AZ505; 0.253 µM) | relative viability (AZ505; 0.8 µM) | relative viability (AZ505; 2.53 µM) | relative viability (AZ505; 8 µM) | relative viability (Dactolisib; 0.002 µM) | relative viability (Dactolisib; 0.006325 µM) | relative viability (Dactolisib; 0.02 µM) | relative viability (Dactolisib; 0.06325 µM) | relative viability (Dactolisib; 0.2 µM) | relative viability (AZ505 + Navitoclax; first compound 0.08 µM) | relative viability (AZ505 + Navitoclax; first compound 0.253 µM) | relative viability (AZ505 + Navitoclax; first compound 0.8 µM) | relative viability (AZ505 + Navitoclax; first compound 2.53 µM) | relative viability (AZ505 + Navitoclax; first compound 8 µM) | relative viability (AZ505 + Foretinib; first compound 0.08 µM) | relative viability (AZ505 + Foretinib; first compound 0.253 µM) | relative viability (AZ505 + Foretinib; first compound 0.8 µM) | relative viability (AZ505 + Foretinib; first compound 2.53 µM) | relative viability (AZ505 + Foretinib; first compound 8 µM)
1 | LCLC-97TM1 | 0.893 | 0.838 | 0.897 | 0.759 | 1.06 | 1.01 | 1.02 | 0.9 | 0.802 | 0.388 | 0.446 | 0.521 | 0.902 | 0.735 | 0.694 | 0.874 | 0.87 | 0.888 | 0.86 | 1.02
2 | NCI-H1703 | 0.733 | 0.853 | 1.04 | 1.11 | 1.03 |  | 0.768 | 0.784 | 0.479 | 0.405 | 1.05 | 1.36 | 1.32 | 1.31 | 1.55 |  | 0.411 | 0.335 | 0.366 | 0.365
3 | PC-3 [JPC-3] | 0.956 | 0.978 | 0.974 | 0.926 | 1.07 | 1.11 | 1.03 | 1.03 | 0.898 | 0.664 | 0.76 | 0.817 | 0.768 | 0.84 | 0.802 | 0.945 | 0.936 | 0.923 | 0.991 | 1.04
4 | BEN | 0.873 | 0.97 | 0.905 | 1.1 | 1.05 | 1.02 | 0.883 | 0.81 | 0.536 | 0.366 | 0.078 | 0.0642 | 0.0775 | 0.0686 | 0.0829 | 0.612 | 0.644 | 0.693 | 0.675 | 0.833
5 | NCI-H1666 | 0.899 | 0.978 | 0.974 | 0.973 | 0.961 | 1.09 | 0.926 | 0.957 | 0.746 | 0.639 | 0.969 | 1.06 | 0.99 | 0.896 | 0.894 | 0.946 | 1.01 | 0.917 | 0.9 | 0.95
6 | LC-2-ad | 0.902 | 0.922 | 1.01 | 1.07 | 0.998 | 1.03 | 0.959 | 1.06 | 0.823 | 0.58 | 0.285 | 0.594 | 0.528 | 0.491 | 0.54 | 0.84 | 0.941 | 0.831 | 0.814 | 0.993
7 | SW 1573 | 0.9 | 0.964 | 0.899 | 0.914 | 0.958 | 1.07 | 0.838 | 0.696 | 0.414 | 0.284 | 0.893 | 1.03 | 1.05 | 1.09 | 0.91 | 0.873 | 0.993 | 0.918 | 0.817 | 0.959
8 | ChaGo-K-1 | 0.959 | 1 | 1.05 | 1.01 | 1.12 | 0.963 | 0.964 | 0.945 | 0.909 | 0.868 | 1.02 | 0.856 | 1.04 | 1.14 | 1.07 | 0.936 | 1.11 | 0.928 | 0.951 | 0.91
9 | COR-L 105 | 0.89 | 0.918 | 0.887 | 0.851 | 1.01 | 0.959 | 0.898 | 0.781 | 0.363 | 0.425 | 0.772 | 0.692 | 0.83 | 0.844 | 0.778 | 0.76 | 1.29 | 0.981 | 0.862 | 0.903
10 | NCI-H1975 | 0.831 | 0.848 | 0.951 | 0.901 | 0.972 | 0.922 | 0.957 | 0.824 | 0.483 | 0.315 | 1.02 | 0.99 | 1.05 | 1.03 | 1.13 | 0.889 | 0.928 | 0.902 | 0.946 | 0.96
11 | Calu-6 | 0.94 | 1.01 | 0.96 | 0.993 | 1.01 | 1.06 | 0.989 | 1.05 | 0.622 | 0.473 | 0.778 | 0.818 | 0.799 | 0.897 | 0.937 | 0.814 | 0.901 | 0.819 | 0.799 | 0.892
12 | NCI-H1993 | 0.871 | 0.888 | 0.903 | 1.02 | 1.09 | 1.01 | 0.702 | 0.663 | 0.59 | 0.603 | 0.859 | 0.911 | 0.86 | 1.01 | 0.917 | 0.764 | 0.702 | 0.731 | 0.846 | 0.963
13 | RERF-LC-KJ | 0.947 | 0.968 | 0.925 | 0.953 | 0.943 | 1 | 0.961 | 0.889 | 0.497 | 0.509 | 1.3 | 0.901 | 0.916 | 0.869 | 0.753 | 0.906 | 0.829 | 0.8 | 0.46 | 0.863
14 | NCI-H23 | 0.848 |  | 0.874 | 0.995 | 1.12 | 1.05 | 0.863 | 0.835 | 0.372 | 0.335 | 0.71 |  | 0.849 | 0.819 | 0.694 | 0.944 |  | 0.865 | 0.938 | 1.07
15 | HCC-366 | 0.982 | 0.956 | 0.99 | 0.897 | 1.01 | 0.975 | 1.04 | 1.05 | 0.734 | 0.569 | 1.03 | 0.948 | 1.02 | 1.12 | 1.06 | 0.926 | 0.878 | 0.889 | 0.852 | 0.924
16 | EMC-BAC-2 | 0.948 | 0.789 | 0.923 | 1.03 | 0.987 | 1.07 | 0.924 | 0.88 | 0.636 | 0.494 | 1.12 | 1.26 | 1.15 | 1.14 | 1.27 | 0.95 | 0.99 | 0.993 | 0.985 | 0.961
